{
  "source": "patent US20130225529A1",
  "about": "“PHOSPHO-ESTER DERIVATIVES AND USES THEREOF” (priority 2012, published 2013)",
  "key": {"[1]": {"tested_on": "skin papillomas", "assay": "DMBA/TPA-induced skin papillomas in FVB mice", "assay_type": "in vivo", "description": "This initiation-promotion protocol leads to papillomas by wk 10, and in a fraction of the mice to SCC by wk 20. […] Criteria similar to those used for human papilloma classification were applied to assess disease progression: hyperplasia→papilloma (Pap 1-3)→microinvasive SCC (M1-3)→invasive SCC. On wk 20, the study was terminated."}, "[2]": {"tested_on": "β-catenin signaling", "assay": "β-catenin transcriptional activity (TOPflash) in HEK293T cells", "assay_type": "cell-based", "details": "5 μM each; control 1.23±0.11"}, "[3]": {"assay": "PK study of topical PSG versus oral PS", "details": "mouse, skin, topical or ocular"}, "[4]": {"assay_type": "in vivo, mice", "details": "55° C. hot plate, 30 min after single i.p. dose; 100 mg/kg, PI-PEG 1,600 mg/kg; control 1.91 ± 0.46"}, "[5]": {"assay": "Drug levels in papillomas (HPLC)", "details": "equal dose of PS orally"}, "[6]": {"tested_on": "U87 cells", "assay": "24-h growth inhibition of U87 glioblastoma cells", "assay_type": "cell-based", "details": "Homo sapiens, U-87 MG; U87, 24 h", "protocol": "U87 cells were treated with sulindac and ibuprofen as well as with the compounds. U87 is a human primary glioblastoma cell line, formally known as U-87 MG. This cell line has epithelial morphology, and is one of the most frequently used glioblastoma cell lines."}, "[7]": {"assay": "Inhalation versus oral delivery of PS", "assay_type": "in vivo, mice"}},
  "data": [
    {"smiles": "CCOP(=O)(OCC)OCCCCOC(=O)CC1=C(C)/C(=C/c2ccc([S+](C)[O-])cc2)c2ccc(F)cc21", "note": "(stereo not drawn) [PS 118]", "values": [
      {"measurement": "papilloma multiplicity, oral administration", "setting": "[1]; oral", "result": "failed to reduce papilloma multiplicity"},
      {"measurement": "reduction of tumor burden (average tumor volume/mouse)", "setting": "[1]; topical", "result": "~90", "unit": "%"},
      {"measurement": "thickness of the epidermis", "setting": "[1]; topical", "result": "partial effect"},
      {"measurement": "reduction of tumor number (papillomas/mouse)", "setting": "[1]; topical application", "result": "merely stabilized disease progression"},
      {"measurement": "luciferase/renilla activity", "setting": "[2]", "result": "0.76±0.03"},
      {"measurement": "AUC(0-t)", "setting": "[3]", "result": 684, "unit": "µM·h"},
      {"measurement": "Cmax", "setting": "[3]", "result": 36.1, "unit": "µM"},
      {"measurement": "Tmax", "setting": "[3]", "result": 2, "unit": "h"},
      {"measurement": "latency values (mean±SD)", "setting": "[4]", "result": "4.55 ± 1.00", "unit": "s"},
      {"measurement": "level of PS in papillomas", "setting": "[5]", "result": "0.3 ± 0.2", "unit": "nmol/g"},
      {"measurement": "IC50", "setting": "[6]", "result": 114, "unit": "µM"},
      {"measurement": "PS levels in plasma", "setting": "[7]; inhalation and oral", "result": "undetectable"},
      {"measurement": "level of intact PS in lungs", "setting": "[7]; inhalational 6.5 mg/kg", "result": "> 20", "unit": "nmol/g"},
      {"measurement": "total drug levels in lungs, inhalation vs oral", "setting": "[7]; mouse, in vivo, po", "result": "significantly higher compared to those by oral administration"},
      {"measurement": "level of intact PS in lungs", "setting": "[7]; oral 150 mg/kg", "result": "< 2", "unit": "nmol/g"}
    ]}
  ]
}
